Data on six molecules can be found in patent US4126616A, “N-propylnorapomorphine diesters” (Hinshaw; William B., priority 1976, dated 1978).

The assay has as its system caudate lesioned mouse. The experiment in a line: caudate lesioned mouse test (anti-parkinson activity). It counts as in vivo. As to conditions: for responders at 13 µmol/kg / responders at 26 µmol/kg / responders at 132 µmol/kg / responders at 208 µmol/kg / responders at 52 µmol/kg / responders at 416 µmol/kg: Mus musculus; for responders at 13 µmol/kg: dose 0.013 m. mole/kg; for responders at 26 µmol/kg: dose 0.026 m. mole/kg; for responders at 132 µmol/kg: dose 0.132 m. mole/kg; for responders at 208 µmol/kg: dose 0.208 m. mole/kg; for Molar Potency Ratio Claimed/Ref. Ester: claimed N-propyl ester vs corresponding N-methyl reference ester; for responders at 52 µmol/kg: dose 0.052 m. mole/kg; for responders at 416 µmol/kg: dose 0.416 m. mole/kg. The protocol: An index of anti-parkinson activity was determined using the caudate lesioned mouse test described by Lotti, Life Sci., 10, 781-789 (1971). The mice having unilateral lesions of the caudate nucleus prepared according to the method of Lotti supra were observed immediately after the surgical procedure for strong postural asymmetries directed to the same side as the lesion. When this asymmetry was not observed, the mice were discarded. Operated mice were allowed at least 14 days to recover prior to drug testing. The lesioned mice were tested with apomorphine using 1.7 mg./kg. of base administered intraperitoneally in a 1% suspension in gum tragacanth. […] Only those mice which twisted or circled toward the lesioned side in all three test periods after the apomorphine injection were retained for further drug testing. The test drugs were all administered in 1% gum tragacanth suspension in a volume of 0.1 ml./10 g. of body weight. Doses were expressed in mg./kg. of free base.
Results of tests in the caudate lesioned mouse test described above which were obtained on the compounds of the invention are given in the table below identified, in each case, by the example numbers above where their preparations are described. Corresponding data for reference apomorphine diesters described in German patent application No. 2,154,162 are given in a side-by-side relationship for a number of the species. The reference compounds, designated Ref. 1, Ref. 1B, Ref. 1C, Ref. 1D, Ref. 1E, Ref. 1F, Ref. 2 and Ref. 2A correspond, respectively, to the compounds of the invention identified by Examples 1, 1B, 1C, 1D, 1E, 1F, 2 and 2A and differ from the latter only in having a methyl group on the apomorphine nitrogen from instead of an n-propyl group as present in the instant compounds.

Where [1] appears, read: 0.5 h, 1/2 h post-drug, read-out: No. Mice Affected/No. Mice Tested, 1/2 h (converted).
[2] abbreviates: 1 h post-drug, read-out: No. Mice Affected/No. Mice Tested, 1 h (converted).
Where [3] appears, read: 2 h post-drug, read-out: No. Mice Affected/No. Mice Tested, 2 h (converted).
Setting [4] is: 4 h post-drug, read-out: No. Mice Affected/No. Mice Tested, 4 h (converted).
The mark [5] stands for this setting: 24 h post-drug, read-out: No. Mice Affected/No. Mice Tested, 24 h.
The mark [6] stands for this setting: total, read-out: No. Mice Affected/No. Mice Tested, Total (converted).
[7] abbreviates: 6 h post-drug, read-out: No. Mice Affected/No. Mice Tested, 6 h (converted).
Where [8] appears, read: 24 h post-drug, read-out: No. Mice Affected/No. Mice Tested, 24 h (converted).
Setting [9] is: 1 h post-drug, read-out: No. Mice Affected/No. Mice Tested, 1 h.

The ED50 is the midpoint of the dose-response relation.

SMILES strings stand for the structures. Where a name gives a salt, the structure may show the parent alone. Read-outs that look alike come from different tables or passages of the source. Where only a bound is given, the exact number is not on record here.

Regarding `CCCN1CCc2cccc3c2C1Cc1ccc(OC(=O)C2CC2)c(OC(=O)C2CC2)c1-3` (stereo not drawn) [Ex. 1M, N-Propylnorapomorphine bis-cyclopropanecarboxylate], the ED50 (ED50, caudate lesioned mouse, read-out: ED50) is 13 µmol/kg. Besides, the responders at 13 µmol/kg under setting [1] is 50%; the responders at 13 µmol/kg under setting [2] is 50%; the responders at 13 µmol/kg under setting [3] was 50%; the responders at 13 µmol/kg under setting [4] was 25%; the responders at 13 µmol/kg (6 h post-drug, read-out: No. Mice Affected/No. Mice Tested, 6 h) amounted to 0%; the responders at 13 µmol/kg under setting [5] is 0%. Further, under setting [6], the responders at 13 µmol/kg was 50%. Besides, the responders at 26 µmol/kg is, setting by setting: under setting [1], 100%; under setting [2], 75%; under setting [3], 75%; under setting [4], 75%; under setting [7], 75%; under setting [5], 0%. The responders at 26 µmol/kg under setting [6] is 100%. Further, the responders at 132 µmol/kg under setting [1] is 100%; the responders at 132 µmol/kg under setting [2] was 100%; the responders at 132 µmol/kg under setting [3] is 100%; the responders at 132 µmol/kg under setting [4] is 100%; the responders at 132 µmol/kg under setting [7] is 100%; the responders at 132 µmol/kg under setting [8] is 100%. The responders at 132 µmol/kg under setting [6] was 100%.
As to `CCCN1CCc2cccc3c2C1Cc1ccc(OC(=O)c2ccc(Cl)cc2)c(OC(=O)c2ccc(Cl)cc2)c1-3` (stereo not drawn) [Ex. 1F, N-Propylnorapomorphine bis-4-chlorobenzoate], the “Molar Potency Ratio Claimed/Ref. Ester” value was at least 3. Further, under setting [1], the responders at 132 µmol/kg was 0% and the responders at 208 µmol/kg is 33.3%. Under setting [2], the responders at 132 µmol/kg was 25%. Further, under setting [4], the responders at 132 µmol/kg was 0% and the responders at 208 µmol/kg was 66.7%. Moreover, under setting [7], the responders at 132 µmol/kg is 25% and the responders at 208 µmol/kg is 100%. In addition, under setting [8], the responders at 132 µmol/kg is 0% and the responders at 208 µmol/kg was 33.3%. Besides, under setting [6], the responders at 132 µmol/kg was 25% and the responders at 208 µmol/kg was 100%. For the same molecule, under setting [9], the responders at 208 µmol/kg was 0%.
As for `CCCN1CCc2cccc3c2C1Cc1ccc(OC(=O)c2ccccc2)c(OC(=O)c2ccccc2)c1-3` (stereo not drawn) [Ex. 1E, N-Propylnorapomorphine dibenzoate hydrochloride], the “Molar Potency Ratio Claimed/Ref. Ester” value was at least 8. Moreover, under setting [1], the responders at 52 µmol/kg was 0%. Further, the responders at 52 µmol/kg under setting [2] was 0%. Besides, the responders at 52 µmol/kg under setting [4] was 66.7%. For the same molecule, the responders at 52 µmol/kg under setting [7] was 33.3%. The responders at 52 µmol/kg under setting [5] was 0%. Further, the responders at 52 µmol/kg under setting [6] was 66.7%.
On to `CCCCCCCCCCCCCCCC(=O)Oc1ccc2c(c1OC(=O)CCCCCCCCCCCCCCC)-c1cccc3c1C(C2)N(C)CC3` (stereo not drawn) [Ref. 1D, reference compound], for which the responders at 208 µmol/kg under setting [1] is 0%; the responders at 208 µmol/kg under setting [9] turned out to be 0%; the responders at 208 µmol/kg under setting [4] is 0%; the responders at 208 µmol/kg under setting [7] was 0%; the responders at 208 µmol/kg under setting [8] is 0%; the responders at 208 µmol/kg under setting [6] was 0%. Moreover, the responders at 416 µmol/kg reads like this: under setting [1], 0%; under setting [2], 0%; under setting [4], 0%; under setting [7], 0%; under setting [5], 0%; under setting [6], 0%.
As for `CCCCC(=O)Oc1ccc2c(c1OC(=O)CCCC)-c1cccc3c1C(C2)N(CCC)CC3` (stereo not drawn) [Ex. 2A, N-propylnorapomorphine dipentanoate hydrochloride], the “Molar Potency Ratio Claimed/Ref. Ester” value is listed as at least 3. Under setting [1], the responders at 26 µmol/kg was 0% and the responders at 132 µmol/kg is 50%. Under setting [2], the responders at 26 µmol/kg was 0% and the responders at 132 µmol/kg was 75%. Further, under setting [3], the responders at 26 µmol/kg is 0% and the responders at 132 µmol/kg was 75%. Moreover, under setting [4], the responders at 26 µmol/kg was 0% and the responders at 132 µmol/kg is 75%. Moreover, under setting [7], the responders at 26 µmol/kg was 0% and the responders at 132 µmol/kg was 75%. Moreover, the responders at 26 µmol/kg under setting [5] came to 0%. In addition, under setting [6], the responders at 26 µmol/kg is 0% and the responders at 132 µmol/kg was 75%. Besides, under setting [8], the responders at 132 µmol/kg is 75%.
With `CN1CCc2cccc3c2C1Cc1ccc(OC(=O)c2ccccc2)c(OC(=O)c2ccccc2)c1-3` (stereo not drawn) [Ref. 1E, reference compound], the responders at 416 µmol/kg by setting is: under setting [1], 0%; under setting [2], 0%; under setting [4], 0%; under setting [7], 0%; under setting [5], 0%; under setting [6], 0%.
